The record followed here is the OligoGym collection.

The target in this series is ATXN2. The series is described as follows: mouse, dose not given. As to conditions: ASO.

HELM strings list units from the 5' end as sugar, base in round brackets, then linkage (d deoxyribose, r ribose, m 2'-O-methyl, p phosphodiester). Strings are as the collection lists them; they lack the last nucleoside at the 3' end of the tested compound. [moe] = 2'-O-(2-methoxyethyl) (MOE); [sp] = phosphorothioate linkage; [m5C] = 5-methylcytosine

Take “RNA1{[moe](T)[sp].[moe](T)p.[moe](T)p.[moe](T)p.[moe]([m5C])p.d(T)[sp].d([m5C])[sp].d(A)[sp].d(T)[sp].d(G)[sp].d(T)[sp].d(G)[sp].d([m5C])[sp].d(G)[sp].d(G)[sp].[moe]([m5C])p.[moe](A)p.[moe](T)[sp].[moe]([m5C])}$$$$ (last 3' nucleoside missing)”: the 3 h FOB score worked out at 5 score 0-7.

Turning to “RNA1{[moe]([m5C])[sp].[moe](T)p.[moe]([m5C])p.[moe](T)p.[moe](A)p.d(T)[sp].d(T)[sp].d(T)[sp].d([m5C])[sp].d(T)[sp].d(T)[sp].d(T)[sp].d(G)[sp].d(T)[sp].d([m5C])[sp].[moe]([m5C])p.[moe](A)p.[moe](G)[sp].[moe](G)}$$$$ (last 3' nucleoside missing)”, the 3 h FOB score is 3.5 score 0-7.

“RNA1{[moe](T)[sp].[moe](G)p.[moe](T)p.[moe](T)p.[moe](T)p.d(G)[sp].d(T)[sp].d(T)[sp].d(T)[sp].d(G)[sp].d(T)[sp].d(T)[sp].d(T)[sp].d(T)[sp].d(A)[sp].[moe](A)p.[moe](G)p.[moe](T)[sp].[moe](A)}$$$$ (last 3' nucleoside missing)” registered a 3 h FOB score of 6.5 score 0-7.

Substance “RNA1{[moe](T)[sp].[moe](T)p.[moe](T)p.[moe](T)p.[moe](G)p.d(A)[sp].d(A)[sp].d(T)[sp].d(T)[sp].d(A)[sp].d([m5C])[sp].d(A)[sp].d(A)[sp].d(T)[sp].d(G)[sp].[moe]([m5C])p.[moe](G)p.[moe](G)[sp].[moe](T)}$$$$ (last 3' nucleoside missing)” came in with a 3 h FOB score of 2 score 0-7.

Substance “RNA1{[moe](A)[sp].[moe](G)p.[moe](G)p.[moe](G)p.[moe](T)p.d(T)[sp].d(A)[sp].d(A)[sp].d(T)[sp].d(T)[sp].d(A)[sp].d(G)[sp].d(G)[sp].d(A)[sp].d(T)[sp].[moe]([m5C])p.[moe](T)p.[moe](A)[sp].[moe](T)}$$$$ (last 3' nucleoside missing)” gave a 3 h FOB score of 6 score 0-7.

Turning to “RNA1{[moe](A)[sp].[moe](G)p.[moe](T)p.[moe](A)p.[moe](A)p.d(A)[sp].d(A)[sp].d(G)[sp].d(T)[sp].d(T)[sp].d(T)[sp].d(T)[sp].d(T)[sp].d([m5C])[sp].d([m5C])[sp].[moe]([m5C])p.[moe](T)p.[moe](T)[sp].[moe](A)}$$$$ (last 3' nucleoside missing)”, the 3 h FOB score was 3.25 score 0-7.

As to “RNA1{[moe](T)[sp].[moe]([m5C])p.[moe]([m5C])p.[moe](T)p.[moe](A)[sp].d(T)[sp].d([m5C])[sp].d(A)[sp].d(T)[sp].d([m5C])[sp].d(A)[sp].d(T)[sp].d(T)[sp].[moe](T)p.[moe](T)p.[moe]([m5C])[sp].[moe]([m5C])}$$$$ (last 3' nucleoside missing)”, the 3 h FOB score was 1 score 0-7.

The substance “RNA1{[moe]([m5C])[sp].[moe](T)p.[moe](G)p.[moe]([m5C])p.[moe](T)p.[moe](A)p.d(A)[sp].d([m5C])[sp].d(T)[sp].d(G)[sp].d(G)[sp].d(T)[sp].d(T)[sp].d(T)[sp].d(G)[sp].d([m5C])[sp].[moe]([m5C])p.[moe]([m5C])[sp].[moe](T)}$$$$ (last 3' nucleoside missing)” registered a 3 h FOB score of 5.5 score 0-7.

The substance “RNA1{[moe](A)[sp].[moe]([m5C])p.[moe](T)p.[moe](G)p.[moe](A)p.d(G)[sp].d(T)[sp].d(T)[sp].d([m5C])[sp].d(T)[sp].d(A)[sp].d(T)[sp].d(A)[sp].d(G)[sp].d(G)[sp].[moe](T)p.[moe](G)p.[moe]([m5C])[sp].[moe](T)}$$$$ (last 3' nucleoside missing)” yielded a 3 h FOB score of 3 score 0-7.

Turning to “RNA1{[moe](A)[sp].[moe]([m5C])p.[moe](T)p.[moe](T)p.[moe]([m5C])p.[moe](T)p.d([m5C])[sp].d(T)[sp].d(A)[sp].d(T)[sp].d(T)[sp].d(T)[sp].d([m5C])[sp].d(T)[sp].d(T)[sp].d(T)[sp].[moe](G)p.[moe](T)[sp].[moe]([m5C])}$$$$ (last 3' nucleoside missing)”, the 3 h FOB score was determined as 1.25 score 0-7.

Take “RNA1{[moe](G)[sp].[moe](T)p.[moe](T)p.[moe](A)p.[moe]([m5C])p.d(T)[sp].d(G)[sp].d(T)[sp].d(T)[sp].d(T)[sp].d([m5C])[sp].d(G)[sp].d(A)[sp].d([m5C])[sp].d([m5C])[sp].[moe](T)p.[moe]([m5C])p.[moe](T)[sp].[moe](G)}$$$$ (last 3' nucleoside missing)”: the 3 h FOB score came out at 6.5 score 0-7.

Take “RNA1{[moe](A)[sp].[moe]([m5C])p.[moe](T)p.[moe](T)p.[moe](T)[sp].d(T)[sp].d([m5C])[sp].d(T)[sp].d([m5C])[sp].d(A)[sp].d(T)[sp].d(G)[sp].d(T)[sp].[moe](G)p.[moe]([m5C])p.[moe](G)[sp].[moe](G)}$$$$ (last 3' nucleoside missing)”: the 3 h FOB score was determined as 3.25 score 0-7.

As to “RNA1{[moe](G)[sp].[moe](T)p.[moe](T)p.[moe](A)p.[moe]([m5C])[sp].d(T)[sp].d(G)[sp].d(T)[sp].d(T)[sp].d(T)[sp].d([m5C])[sp].d(G)[sp].d(A)[sp].[moe]([m5C])p.[moe]([m5C])p.[moe](T)[sp].[moe]([m5C])}$$$$ (last 3' nucleoside missing)”, the 3 h FOB score worked out at 6 score 0-7.

For the substance “RNA1{[moe](G)[sp].[moe]([m5C])p.[moe](T)p.[moe](A)p.[moe](A)p.d([m5C])[sp].d(T)[sp].d(G)[sp].d(G)[sp].d(T)[sp].d(T)[sp].d(T)[sp].d(G)[sp].d([m5C])[sp].d([m5C])[sp].[moe]([m5C])p.[moe](T)p.[moe](T)[sp].[moe](G)}$$$$ (last 3' nucleoside missing)”, the 3 h FOB score came to 6.75 score 0-7.

In the case of “RNA1{[moe](A)[sp].[moe](A)p.[moe]([m5C])p.[moe](G)p.[moe](A)p.d(T)[sp].d(G)[sp].d(A)[sp].d(T)[sp].d([m5C])[sp].d(T)[sp].d(G)[sp].d(G)[sp].d(T)[sp].d(A)[sp].[moe](T)p.[moe]([m5C])p.[moe]([m5C])[sp].[moe](T)}$$$$ (last 3' nucleoside missing)”, the 3 h FOB score came out at 7 score 0-7.

As to “RNA1{[moe](T)[sp].[moe](A)p.[moe](T)p.[moe]([m5C])p.[moe](A)[sp].d(T)[sp].d([m5C])[sp].d(A)[sp].d(T)[sp].d(T)[sp].d(T)[sp].d(T)[sp].d([m5C])[sp].[moe]([m5C])p.[moe](A)p.[moe](G)[sp].[moe](G)}$$$$ (last 3' nucleoside missing)”, the 3 h FOB score came to 1.5 score 0-7.

With “RNA1{[moe](T)[sp].[moe]([m5C])p.[moe]([m5C])p.[moe](A)p.[moe](T)p.d(T)[sp].d(A)[sp].d(T)[sp].d(T)[sp].d(T)[sp].d([m5C])[sp].d(T)[sp].d(T)[sp].d([m5C])[sp].d(A)[sp].[moe]([m5C])p.[moe](G)p.[moe](T)[sp].[moe](T)}$$$$ (last 3' nucleoside missing)”, the 3 h FOB score was found to be 1 score 0-7.

Substance “RNA1{[moe](T)[sp].[moe](T)p.[moe](T)p.[moe](T)p.[moe](T)p.d(G)[sp].d([m5C])[sp].d(T)[sp].d(T)[sp].d(A)[sp].d(T)[sp].d(T)[sp].d(A)[sp].d(T)[sp].d(T)[sp].[moe]([m5C])p.[moe](T)p.[moe]([m5C])[sp].[moe](A)}$$$$ (last 3' nucleoside missing)” registered a 3 h FOB score of 0 score 0-7.
